Like-named read-outs stand apart in the source and are kept apart here.

Assay [1] concerns MLKL phosphorylation in HT29-L23 human colorectal adenocarcinoma cells. Briefly: MLKL Phosphorylation High-Content Assay. It counts as cell-based. The settings on record: 6 h, necroptosis induced with TNFα, SMAC mimetic and Z-VAD, read-out: pMLKL (IC50). The procedure, abridged:
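Following fixation and staining for phospho-S358 MLKL with Hoechst nuclear counterstain, high-content imaging quantified phosphorylation in HT29-L23 cells challenged 6 h with TNFα 35 ng/mL, SMAC mimetic 700 nM and Z-VAD 140 nM. Nec-1s at 6.25 μM defined full inhibition; 4-parameter logistic fits yielded IC50 and Ymax.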

Assay [2] deals with His-GST-TVMV-hRIPK1 (1-324) (Homo sapiens (Human), UniProt Q13546). Briefly: biochemical.
Chain of His-GST-TVMV-hRIPK1 (1-324) (Q13546 1-324): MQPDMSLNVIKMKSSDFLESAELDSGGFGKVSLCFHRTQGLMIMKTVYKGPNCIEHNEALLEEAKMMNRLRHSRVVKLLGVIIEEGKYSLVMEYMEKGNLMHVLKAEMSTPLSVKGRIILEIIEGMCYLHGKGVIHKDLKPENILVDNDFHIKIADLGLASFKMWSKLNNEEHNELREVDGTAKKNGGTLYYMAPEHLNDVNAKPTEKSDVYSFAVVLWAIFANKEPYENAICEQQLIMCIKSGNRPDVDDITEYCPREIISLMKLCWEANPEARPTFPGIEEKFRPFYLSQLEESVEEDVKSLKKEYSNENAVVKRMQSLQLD
Protocol: A solution was prepared containing 0.2 nM Anti GST-Tb (Cisbio, 61GSTTLB), 90.6 nM probe and 1 nM His-GST-TVMV-hRIPK1 (1-324) in FRET Buffer (20 mM HEPES, 10 mM MgCl2, 0.015% Brij-35, 4 mM DTT, 0.05 mg/mL BSA). Using Formulatrix Tempest, the detection antibody/enzyme/probe solution (2 mL) was dispensed into wells of a 1536 plate (Black Low Binding Polystyrene 1536 Plate (Corning, 3724)) containing 10 nL of compounds of interest at appropriate concentration in DMSO. The plate was incubated at rt for 1 h. FRET was measured using the EnVision plate reader (Excitation: 340 nm, Emission: 520 nm/495 nM). Total signal (0% inhibition) was calculated from wells containing 10 nL DMSO only.

As a reminder, the IC50 is the concentration that gives 50% inhibition. As for `[2H]C([2H])([2H])Oc1ncc(-c2ccc3c(C(=O)NC([2H])([2H])C([2H])([2H])[2H])n[nH]c3c2)cc1C(=O)N[C@@H]1CN(C(=O)C2CC(F)(F)C2)C[C@@H]1F` [Example 192, 6-(5-{[(3R,4S)-1-(3,3-difluorocyclo-butanecarbonyl)-4-fluoropyrrolidin-3-yl]carbamoyl}-6-(deutero)methoxy-pyridin-3-yl)-N-[(1,1,2,2,2-deutero)-ethyl]-1H-indazole-3-carboxamide], the IC50 in assay [1] (Homo sapiens) turned out to be 0.43 µM; in assay [2] it was 0.11 µM.
Regarding `CNC(=O)c1n[nH]c2cc(-c3cnc(OC)c(C(=O)NC4CCCC(c5ccccc5)C4)c3)ccc12` (single isomer, unassigned) [Example 21-3, 6-{6-methoxy-5-[(3-phenylcyclohexyl)carbamoyl]pyridin-3-yl}-N-methyl-1H-indazole-3-carboxamide], the results for the IC50 in assay [1] and in assay [2] were 0.0081 µM and 0.022 µM, respectively.
Consider `[2H]C([2H])([2H])Oc1ncc(-c2ccc3c(C(=O)NC([2H])([2H])C([2H])([2H])[2H])n[nH]c3c2)cc1C(=O)NCC[C@@H](O)c1ccc(Cl)cc1` [Example 237, 6-(5-{[(3R)-3-(4-chlorophenyl)-3-hydroxypropyl]carbamoyl}-6-(deutero)methoxypyridin-3-yl)-N-[(1,1,2,2,2-deutero)ethyl]-1H-indazole-3-carboxamide], for which the IC50 in assay [1] (Homo sapiens) amounted to 0.014 µM; in assay [2], 0.0063 µM.
On to `[2H]C([2H])([2H])NC(=O)c1n[nH]c2cc(-c3cnc(OC)c(-c4nnn(C(C)c5ccc(F)cc5)n4)c3)ccc12` (single isomer, unassigned) [Example 19-2, 6-(5-(2-(1-(4-fluorophenyl)ethyl)-2H-tetrazol-5-yl)-6-methoxypyridin-3-yl)-N-(methyl-d3)-1H-indazole-3-carboxamide], for which the values for the IC50 in assay [1] and in assay [2] were 0.064 µM and 0.1 µM, respectively.
In the same order, the values of `CCC(c1ccccc1)n1nnc(-c2cc(-c3ccc4c(C(=O)NC)n[nH]c4c3)cnc2OC)n1` (single isomer, unassigned) [Example 18-1, 6-(6-methoxy-5-(2-(l-phenylpropyl)-2H-tetrazol-5-yl)pyridin-3-yl)-N-methyl-1H-indazole-3-carboxamide] are 0.0073 µM and 0.0055 µM.
`[2H]C([2H])([2H])Oc1ncc(-c2ccc3c(C(=O)NC4CC4)n[nH]c3c2)cc1C(=O)N[C@H](C)c1ccccc1C(F)(F)F` [Example 209, N-cyclopropyl-6-[6-(deutero)-methoxy-5-{[(1R)-1-[2-(trifluoro-methyl)phenyl]ethyl]carbamoyl}-pyridin-3-yl]-1H-indazole-3-carboxamide]: the IC50 in assay [1] (Homo sapiens) came out at 0.074 µM; in assay [2], 0.033 µM.
In the case of `CNC(=O)c1n[nH]c2cc(-c3cnc(OC)c(C(=O)NC4CCCC(c5ccccc5)C4)c3)ccc12` (single isomer, unassigned) [Example 21-2, 6-{6-methoxy-5-[(3-phenylcyclohexyl)carbamoyl]pyridin-3-yl}-N-methyl-1H-indazole-3-carboxamide], the IC50 in assay [1] was 0.013 µM; in assay [2], 0.0059 µM.
The matching figures for `[2H]C([2H])([2H])Oc1ncc(-c2ccc3c(C(=O)NC4CC4)n[nH]c3c2)cc1C(=O)N[C@H](C)CC(=O)OC(C)(C)C` [Example 196, tert-butyl (3R)-3-({5-[3-(cyclo-propylcarbamoyl)-1H-indazol-6-yl]-2-(deutero)methoxypyridin-3-yl}formamido)butanoate]: 0.019 µM and 0.084 µM.
Consider `CNC(=O)c1n[nH]c2cc(-c3cnc(OC)c(C(=O)NC4CCCC(c5ccccc5)C4)c3)ccc12` (single isomer, unassigned) [Example 21-1, 6-{6-methoxy-5-[(3-phenylcyclohexyl)carbamoyl]pyridin-3-yl}-N-methyl-1H-indazole-3-carboxamide], for which the IC50 was 0.0083 µM in assay [1] and 0.0035 µM in assay [2].
With `[2H]C([2H])([2H])Oc1ncc(-c2ccc3c(C(=O)NC([2H])([2H])C([2H])([2H])[2H])n[nH]c3c2)cc1C(=O)N[C@@H](C)CC(=O)OC(C)(C)C` [Example 238, tert-butyl (3S)-3-{[5-(3-{[(1,1,2,2,2-deutero)ethyl]carbamoyl}-1H-indazol-6-yl)-2-(deutero)methoxy-pyridin-3-yl]formamido}butanoate], the results for the half-inhibitory concentration (IC50) in assay [1] (Homo sapiens) and in assay [2] were 0.041 µM and 0.047 µM, respectively.
With `CNC(=O)c1n[nH]c2cc(-c3cnc(OC)c(C(=O)NC4CCCC(c5ccccc5)C4)c3)ccc12` (single isomer, unassigned) [Example 21-4, 6-{6-methoxy-5-[(3-phenylcyclohexyl)carbamoyl]pyridin-3-yl}-N-methyl-1H-indazole-3-carboxamide], the IC50 in assay [1] and in assay [2] was 0.002 µM in each case.
For `[2H]C([2H])([2H])Oc1ncc(-c2ccc3c(C(=O)NC([2H])([2H])C([2H])([2H])[2H])n[nH]c3c2)cc1C(=O)N[C@H](C)c1cccc(OC(F)(F)F)c1` [Example 231, N-[(1,1,2,2,2-deutero)ethyl]-6-[6-(deutero)methoxy-5-{[(1R)-1-[3-(trifluoromethoxy)phenyl]ethyl]-carbamoyl}pyridin-3-yl]-1H-indazole-3-carboxamide], the concentration for half-maximal inhibition (IC50) turned out to be 0.01 µM in assay [1] (Homo sapiens) and 0.048 µM in assay [2].
As to `[2H]C([2H])([2H])Oc1ncc(-c2ccc3c(C(=O)NC4CC4)n[nH]c3c2)cc1C(=O)N[C@@H](C)CC(=O)OC(C)(C)C` [Example 195, tert-butyl (3S)-3-({5-[3-(cyclo-propylcarbamoyl)-1H-indazol-6-yl]-2-(deutero)methoxypyridin-3-yl}formamido)butanoate], the half-maximal inhibitory concentration (IC50) in assay [1] is 0.039 µM; in assay [2], 0.036 µM.
Consider `[2H]C([2H])([2H])NC(=O)c1n[nH]c2cc(-c3cnc(OC)c(-c4nnn(C(C)c5ccc(F)cc5)n4)c3)ccc12` (single isomer, unassigned) [Example 19-1, 6-(5-(2-(1-(4-fluorophenyl)ethyl)-2H-tetrazol-5-yl)-6-methoxypyridin-3-yl)-N-(methyl-d3)-1H-indazole-3-carboxamide], for which the values for the IC50 in assay [1] and in assay [2] were 0.014 µM and 0.042 µM, respectively.
Regarding `[2H]C([2H])([2H])Oc1ncc(-c2ccc3c(C(=O)NC([2H])([2H])C([2H])([2H])[2H])n[nH]c3c2)cc1C(=O)N[C@H](C)c1ccccc1C(F)(F)F` [Example 235, N-[(1,1,2,2,2-deutero)ethyl]-6-[6-(deutero)methoxy-5-{[(1R)-1-[2-(trifluoromethyl)phenyl]ethyl]car-bamoyl}pyridin-3-yl]-1H-indazole-3-carboxamide], the IC50 in assay [1] (Homo sapiens) came to 0.048 µM; in assay [2], 0.034 µM.
In the same order, the values of `[2H]C([2H])([2H])Oc1ncc(-c2ccc3c(C(=O)NC(C)C)n[nH]c3c2)cc1C(=O)NC(C)c1ccccc1OC(F)(F)F` (racemic) [Example 22, (rac)-N-isopropyl-6-(6-methoxyd3-5-((1-(2-(trifluoromethoxy)phenyl)ethyl)carbamoyl)pyridin-3-yl)-1H-indazole-3-carboxamide] are 0.44 µM and 0.1 µM.
In the same order, the values of `CNC(=O)c1n[nH]c2cc(-c3cnc(OC)c(C(=O)NC(C)c4ccccc4OC(F)(F)F)c3)cc(F)c12` (racemic) [Example 24, 4-fluoro-6-[6-methoxy-5-({1-[2-(trifluoromethoxy)phenyl]ethyl}carbamoyl)pyridin-3-yl]-N-methyl-1H-indazole-3-carboxamide] are 0.011 µM and 0.0054 µM.
In the case of `[2H]C([2H])([2H])Oc1ncc(-c2ccc3c(C(=O)NC([2H])([2H])C([2H])([2H])[2H])n[nH]c3c2)cc1C(=O)N[C@H](C)c1cccc(C(F)(F)F)c1` [Example 229, N-[(1,1,2,2,2-deutero)ethyl]-6-[6-(deutero)methoxy-5-{[(1R)-1-[3-(trifluoromethyl)phenyl]ethyl]car-bamoyl}pyridin-3-yl]-1H-indazole-3-carboxamide], the IC50 in assay [1] (Homo sapiens) is 0.082 µM; in assay [2], 0.21 µM.
In the same order, the values of `[2H]C([2H])([2H])Oc1ncc(-c2ccc3c(C(=O)NC([2H])([2H])C([2H])([2H])[2H])n[nH]c3c2)cc1C(=O)N[C@@H](C)c1cc(OC(F)(F)F)ccc1F` [Example 224, N-[(1,1,2,2,2-deutero)ethyl]-6-(5-{[(1S)-1-[2-fluoro-5-(trifluorometh-oxy)phenyl]ethyl]carbamoyl}-6-(deutero)methoxypyridin-3-yl)-1H-indazole-3-carboxamide] are 0.012 µM and 0.017 µM.

Source of the values: US12172975B2, “1H-indazole carboxamides as receptor-interacting protein kinase 1 inhibitors (RIPK1)” (BRISTOL-MYERS SQUIBB COMPANY, priority 2018, dated 2024).
